Results reported in patent US10793563B2, “GCN2 inhibitors and uses thereof” (Merck Patent GmbH, priority 2018, dated 2020).
Read-outs that look alike come from different tables or passages of the source.

Legend:
GCN2 kinase = GCN2 kinase (Homo sapiens (Human), UniProt Q9P2K8); test: GCN2 Enzyme Inhibition Assay (Transcreener ADP2 fluorescence polarization); type: biochemical; conditions: 280 μM ATP, 200 μM (RS)7 peptide, 4 nM GCN2, 25° C.; for Ki: Ki(app)
Summary of the method: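 At 25 °C, GCN2 kinase (typical final concentration 4 nM) and (RS)7 peptide in Tris-HCl pH 7.5 buffer with MgCl2, NaCl and DTT were preincubated with compound for 10 min, then ATP was added for a 1 h reaction. ADP was read by FP with antibody/Alexa633 tracer. Non-linear tight-binding analysis gave IC50 and apparent Ki.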

[1] = target: intracellular GCN2 (phosphorylation of the GCN2 substrate eIF2α) (Homo sapiens (Human), UniProt Q9P2K8); test: GCN2 Cellular Inhibition Assay (AlphaScreen SureFire P-eIF2α Ser51, borrelidin-treated U2OS cells); type: cell-based; conditions: 10 μM borrelidin, 1 h
intracellular GCN2 (phosphorylation of the GCN2 substrate eIF2α), sequence (Q9P2K8 whole entry): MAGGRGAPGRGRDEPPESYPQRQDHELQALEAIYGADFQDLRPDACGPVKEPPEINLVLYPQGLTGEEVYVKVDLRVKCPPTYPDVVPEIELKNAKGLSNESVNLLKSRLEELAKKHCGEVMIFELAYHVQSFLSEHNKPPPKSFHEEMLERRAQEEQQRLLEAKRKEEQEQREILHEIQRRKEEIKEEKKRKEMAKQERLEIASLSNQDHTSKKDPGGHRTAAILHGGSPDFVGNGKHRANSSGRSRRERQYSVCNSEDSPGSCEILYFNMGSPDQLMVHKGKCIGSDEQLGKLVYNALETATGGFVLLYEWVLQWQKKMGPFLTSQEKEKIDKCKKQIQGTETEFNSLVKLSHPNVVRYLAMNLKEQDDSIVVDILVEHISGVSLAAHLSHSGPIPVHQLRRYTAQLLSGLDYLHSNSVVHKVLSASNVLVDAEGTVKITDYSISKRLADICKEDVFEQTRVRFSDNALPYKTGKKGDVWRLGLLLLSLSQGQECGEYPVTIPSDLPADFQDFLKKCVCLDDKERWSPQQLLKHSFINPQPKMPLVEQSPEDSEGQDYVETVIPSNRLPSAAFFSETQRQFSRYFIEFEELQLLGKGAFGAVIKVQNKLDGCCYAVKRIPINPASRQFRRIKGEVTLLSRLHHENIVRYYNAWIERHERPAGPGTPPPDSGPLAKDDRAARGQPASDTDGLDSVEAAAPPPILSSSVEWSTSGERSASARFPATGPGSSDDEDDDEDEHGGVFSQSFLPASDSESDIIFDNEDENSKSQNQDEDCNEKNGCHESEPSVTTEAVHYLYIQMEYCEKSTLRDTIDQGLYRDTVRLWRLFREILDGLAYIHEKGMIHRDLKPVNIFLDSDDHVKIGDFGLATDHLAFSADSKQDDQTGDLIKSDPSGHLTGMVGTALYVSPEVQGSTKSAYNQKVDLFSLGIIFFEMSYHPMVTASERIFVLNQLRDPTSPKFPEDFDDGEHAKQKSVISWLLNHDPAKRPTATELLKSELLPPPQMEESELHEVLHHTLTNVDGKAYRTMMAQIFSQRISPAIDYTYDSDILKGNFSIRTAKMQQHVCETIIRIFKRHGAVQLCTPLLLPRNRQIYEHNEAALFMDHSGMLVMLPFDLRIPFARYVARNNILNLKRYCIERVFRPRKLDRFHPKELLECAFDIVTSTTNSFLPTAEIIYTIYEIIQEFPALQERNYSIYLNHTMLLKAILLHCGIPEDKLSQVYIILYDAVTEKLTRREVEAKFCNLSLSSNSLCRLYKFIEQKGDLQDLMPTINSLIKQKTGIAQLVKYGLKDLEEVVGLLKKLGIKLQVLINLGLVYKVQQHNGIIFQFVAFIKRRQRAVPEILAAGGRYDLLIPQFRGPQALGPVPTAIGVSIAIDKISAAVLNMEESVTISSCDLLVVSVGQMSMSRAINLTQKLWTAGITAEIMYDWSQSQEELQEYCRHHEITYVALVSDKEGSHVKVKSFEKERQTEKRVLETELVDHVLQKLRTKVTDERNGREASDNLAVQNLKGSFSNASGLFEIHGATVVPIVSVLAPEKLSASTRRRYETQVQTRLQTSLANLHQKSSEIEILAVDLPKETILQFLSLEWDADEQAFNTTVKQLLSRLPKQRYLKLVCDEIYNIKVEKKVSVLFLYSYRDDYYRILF
Protocol: Compounds can be screened for their ability to inhibit intracellular GCN2 using an AlphaScreen assay (Perkin Elmer) to detect phosphorylation of the GCN2 substrate eIF2α in borrelidin-treated cells. U2OS cells are plated at 5,000 cells per well in 384-well white polystyrene plates (Corning 3570) in McCoy's 5A media (GIBCO 26600-023) supplemented with 10% foetal bovine serum (SAFC 12103C), Penicillin/Streptomycin solution diluted 1:100 (Sigma P0781), and 2 mM L-glutamine (Sigma G7513), and allowed to adhere overnight at 37° C. in 5% CO2. Compounds are then added to the cell media from a final concentration of 40 μM in 4-fold serial dilutions. Borrelidin (FluoroChem M01440) is immediately added to the wells to a final concentration of 10 μM and the cells are incubated for 1 h at 37° C. in 5% CO2. After 1 h of treatment with borrelidin, the media is removed, and the cells are lysed with lysis buffer (TGR BioSceinces TGRLB) at ambient temperature.
An AlphaScreen SureFire P-eIF2α (Ser51) assay kit (Perkin Elmer TGREIF2S) was used to measure levels of eIF2α phosphorylated on Serine 51. Anti-phosphorylated eIF2α Ser51 antibody-linked acceptor beads (TGR BioScience 6760617) are added to the cell homogenate (diluted 1:250 into a mixture of activation (TGR BioScience TGRAB) and reaction buffer (TGR BioScience TGREIF2S) prepared immediately before use). The plate is then incubated for 2 h at ambient temperature in the dark. Anti-eIF2α antibody-linked donor beads (TGR BioScience 6760617) were then added (diluted 1:100 in dilution buffer (TGR BioScience TGRDB) prepared immediately before use). The plate is then incubated overnight at ambient temperature in the dark.
Plates are analyzed on an Alpha Technology-compatible PHERAstar FS plate reader (BMG Labtech Version 1.14) to quantify phosphorylated eIF2α Ser51 levels. The percentage inhibition of phosphorylated eIF2α is calculated by comparison to control wells stimulated with borrelidin alone.

[2] = phosphorylated eIF2α Ser51, read-out: GCN2 Biomarker (IC50)

GCN2 kinase, sequence (Q9P2K8 whole entry): as above

| Compound | Ki (GCN2 kinase) [nM] | IC50 [1, 2] [nM] | IC50 (GCN2 kinase) [nM] | IC50 ([1]; GCN2 Biomarker (IC50), phosphorylated eIF2α Ser51) [nM] |
| --- | --- | --- | --- | --- |
| CS(C)(=O)=NC1CCCN(c2ccnc(-c3cnc4cc(F)c(Cl)cn34)n2)C1 (centres unmarked) [I-49, ((1-(2-(6-Chloro-7-fluoroimidazo[1,2-a]pyridin-3-yl)pyrimidin-4-yl)piperidin-3-yl)imino)dimethyl-λ^6-sulfanone] | 10 to 100 | > 5000 | – | – |
| CC1CN(c2ccnc(-c3cnc4ccc(C(F)(F)F)cn34)n2)CC(C)N1C1CC1 (centres unmarked) [I-392, 3-(4-(4-cyclopropyl-3,5-dimethylpiperazin-1-yl)pyrimidin-2-yl)-6-(trifluoromethyl)imidazo[1,2-a]pyridine] | – | 500 to 5000 | 100 to 1000 | – |
| OCC1CCN(c2ccnc(-c3cnc4cc(F)c(Cl)cn34)n2)CC1c1ccccc1 (centres unmarked) [I-83, {1-[2-(6-Chloro-7-fluoro-imidazo[1,2-a]pyridin-3-yl)-pyrimidin-4-yl]-3-phenyl-piperidin-4-yl}-methanol] | 10 to 100 | 500 to 5000 | – | – |
| Cc1noc([C@H]2CN(c3ccnc(-c4cnc5cc(F)c(Cl)cn45)n3)C[C@@H](C)O2)n1 (relative stereo) [I-56, 6-Chloro-7-fluoro-3-{4-[cis-2-methyl-6-(3-methyl-[1,2,4]oxadiazol-5-yl)-morpholin-4-yl]-pyrimidin-2-yl}-imidazo[1,2-a]pyridine] | 10 to 100 | – | – | 500 to 5000 |
| Cc1[nH]ncc1[C@@H]1[C@H](C)N(c2ccnc(-c3cnc4ccc(C(F)(F)F)cn34)n2)CCN1C1COC1 [I-365] | – | 500 to 5000 | 100 to 1000 | – |
| C[C@@H]1C[C@H](N=S(C)(C)=O)CN(c2ccnc(-c3cnc4ccc(C#N)cn34)n2)C1 [I-262, 3-(4-((3S,5R)-3-((dimethyl(oxo)-λ6-sulfaneylidene)amino)-5-methylpiperidin-1-yl)pyrimidin-2-yl)imidazo[1,2-a]pyridine-6-carbonitrile] | – | > 5000 | 10 to 100 | – |
| OCC1CN(c2ccnc(-c3cnc4ccc(C(F)(F)F)cn34)n2)CCC1O (centres unmarked) [I-241, 3-(hydroxymethyl)-1-(2-(6-(trifluoromethyl)imidazo[1,2-a]pyridin-3-yl)pyrimidin-4-yl)piperidin-4-ol] | – | 500 to 5000 | 10 to 100 | – |
| Cc1n[nH]nc1[C@H]1C[C@@H](C)CN(c2ccnc(-c3cnc4ccc(C(F)(F)F)cn34)n2)C1 [I-408, 3-(4-((3R,5S)-3-methyl-5-(5-methyl-2H-1,2,3-triazol-4-yl)piperidin-1-yl)pyrimidin-2-yl)-6-(trifluoromethyl)imidazo[1,2-a]pyridine] | – | 500 to 5000 | 10 to 100 | – |
| FC(F)(F)c1ccc2ncc(-c3nccc(N4CCN(Cc5cnc[nH]5)C(c5cn[nH]c5)C4)n3)n2c1 (centres unmarked) [I-385, 3-(4-(4-((1H-imidazol-5-yl)methyl)-3-(1H-pyrazol-4-yl)piperazin-1-yl)pyrimidin-2-yl)-6-(trifluoromethyl)imidazo[1,2-a]pyridine] | – | 500 to 5000 | < 10 | – |
| C[C@@H]1C[C@H](N=S(C)(C)=O)CN(c2ccnc(-c3cnc4ccc(Br)cn34)n2)C1 [I-289, (((3 S,5R)-1-(2-(6-bromoimidazo[1,2-a]pyridin-3-yl)pyrimidin-4-yl)-5-methylpiperidin-3-yl)imino)dimethyl-λ6-sulfanone] | – | 500 to 5000 | 10 to 100 | – |
| CC(=O)N1CCN(c2ccnc(-c3cnc4ccc(C(F)F)cn34)n2)CC1 [I-14, 1-[4-[2-[6-(Difluoromethyl)imidazo[1,2-a]pyridin-3-yl]pyrimidin-4-yl]piperazin-1-yl]ethanone] | 10 to 100 | 500 to 5000 | – | – |
| O=S1(=O)CC2(CC(N3CCN(c4ccnc(-c5cnc6ccc(C(F)(F)F)cn56)n4)C[C@@H]3c3cn[nH]c3)C2)C1 [I-556, (S)-6-(2-(1H-pyrazol-4-yl)-4-(2-(6-(trifluoromethyl)imidazo[1,2-a]pyridin-3-yl)pyrimidin-4-yl)piperazin-1-yl)-2-thiaspiro[3.3]heptane 2,2-dioxide] | – | 500 to 5000 | – | – |
| Cc1[nH]ncc1[C@H]1CN(c2nccc(-c3cnc4ccc(C(F)(F)F)cn34)n2)C[C@@H](C)O1 (relative stereo) [I-115, cis-2-Methyl-6-(3-methyl-1H-pyrazol-4-yl)-4-{4-[6-(trifluoromethyl)imidazo[1,2-a]pyridin-3-yl]pyrimidin-2-yl}morpholine] | – | < 500 | – | – |
| C[C@H]1C[C@@H](c2cn[nH]c2)CN(c2nccc(-c3cnc4ccc(C(F)(F)F)cn34)n2)C1 (mixture of isomers) [I-114, 2-[3-methyl-5-(1H-pyrazol-4-yl)piperidin-1-yl]-4-[6-(trifluoromethyl)imidazo[1,2-a]pyridin-3-yl]pyrimidine] | – | < 500 | – | – |
| C[C@@H]1CN(c2nccc(-c3cnc4ccc(C(F)(F)F)cn34)n2)C[C@H](c2cn[nH]c2)O1 (relative stereo) [I-117, cis-2-Methyl-6-(1H-pyrazol-4-yl)-4-{4-[6-(trifluoromethyl)imidazo[1,2-a]pyridin-3-yl]pyrimidin-2-yl}morpholine] | – | < 500 | – | – |

The next lines start with results.

| Ki (GCN2 kinase) [nM] | IC50 [1, 2] [nM] | IC50 (GCN2 kinase) [nM] | Compound | IC50 ([1]; GCN2 Biomarker (IC50), phosphorylated eIF2α Ser51) [nM] |
| --- | --- | --- | --- | --- |
| – | < 500 | – | FC(F)(F)c1ccc2ncc(-c3ccnc(N4CCOC(c5cn[nH]c5)C4)n3)n2c1 (centres unmarked) [I-10, 2-(1H-pyrazol-4-yl)-4-(4-(6-(trifluoromethyl)imidazo[1,2-a]pyridin-3-yl)pyrimidin-2-yl)morpholine] | – |
| – | < 500 | 10 to 100 | Fc1ccc(CN2CCN(c3ccnc(-c4cnc5ccc(C(F)(F)F)cn45)n3)CC2c2cn[nH]c2)cc1F (centres unmarked) [I-450, 3-(4-(4-(3,4-difluorobenzyl)-3-(1H-pyrazol-4-yl)piperazin-1-yl)pyrimidin-2-yl)-6-(trifluoromethyl)imidazo[1,2-a]pyridine] | – |
| – | < 500 | < 10 | CC1(CN2CCN(c3ccnc(-c4cnc5ccc(C(F)(F)F)cn45)n3)CC2c2cn[nH]c2)CC1 (centres unmarked) [I-510, 3-(4-(4-((1-methylcyclopropyl)methyl)-3-(1H-pyrazol-4-yl)piperazin-1-yl)pyrimidin-2-yl)-6-(trifluoromethyl)imidazo[1,2-a]pyridine] | – |
| – | < 500 | < 10 | FC(F)(F)CCN1CCN(c2ccnc(-c3cnc4ccc(C(F)(F)F)cn34)n2)CC1c1cn[nH]c1 (centres unmarked) [I-449, 3-(4-(3-(1H-pyrazol-4-yl)-4-(3,3,3-trifluoropropyl)piperazin-1-yl)pyrimidin-2-yl)-6-(trifluoromethyl)imidazo[1,2-a]pyridine] | – |
| – | < 500 | – | FC(F)(F)c1ccc2ncc(-c3nccc(N4CCOC(c5cn[nH]c5)C4)n3)n2c1 (centres unmarked) [I-3, 1H-pyrazol-4-yl-4-[2-[6-(trifluoromethyl)imidazo[1,2-a]pyridin-3-yl]pyrimidin-4-yl]morpholine] | – |
| – | < 500 | – | FC(F)(F)c1ccc2ncc(-c3nccc(N4CCN(C[C@H]5CC56CC6)[C@@H](c5cn[nH]c5)C4)n3)n2c1 [I-553, 3-(4-((S)-3-(1H-pyrazol-4-yl)-4-(((S)-spiro[2.2]pentan-1-yl)methyl)piperazin-1-yl)pyrimidin-2-yl)-6-(trifluoromethyl)imidazo[1,2-a]pyridine] | – |
| – | < 500 | – | Cc1n[nH]cc1[C@H]1CN(c2ccnc(-c3cnc4ccc(C(F)(F)F)cn34)n2)C[C@@H](C)O1 [I-120] | – |
| – | < 500 | – | FC(F)(F)c1ccc2ncc(-c3nccc(N4CCN(C[C@@H]5CC56CC6)[C@@H](c5cn[nH]c5)C4)n3)n2c1 [I-554, 3-(4-((S)-3-(1H-pyrazol-4-yl)-4-(((R)-spiro[2.2]pentan-1-yl)methyl)piperazin-1-yl)pyrimidin-2-yl)-6-(trifluoromethyl)imidazo[1,2-a]pyridine] | – |
| – | < 500 | – | FC(F)(F)c1ccc2ncc(-c3nccc(N4CCOC(c5cn[nH]c5)C4)n3)n2c1 (centres unmarked) [I-2, 1H-Pyrazol-4-yl-4-[2-[6-(trifluoromethyl)imidazo[1,2-a]pyridin-3-yl]pyrimidin-4-yl]morpholine] | – |
| – | < 500 | – | FC(F)(F)c1ccc2ncc(-c3ccnc(N4CCOC(c5cn[nH]c5)C4)n3)n2c1 (centres unmarked) [I-44, 2-(1H-Pyrazol-4-yl)-4-[4-[6-(trifluoromethyl)imidazo[1,2-a]pyridin-3-yl]pyrimidin-2-yl]morpholine] | – |
| – | < 500 | – | FC(F)(F)c1ccc2ncc(-c3nccc(N4CCN(C[C@@H]5CC56CC6)[C@H](c5cn[nH]c5)C4)n3)n2c1 [I-552, 3-(4-((R)-3-(1H-pyrazol-4-yl)-4-(((R)-spiro[2.2]pentan-1-yl)methyl)piperazin-1-yl)pyrimidin-2-yl)-6-(trifluoromethyl)imidazo[1,2-a]pyridine] | – |
| – | < 500 | – | C[C@@H]1CN(c2nccc(-c3cnc4ccc(C(F)(F)F)cn34)n2)C[C@H](c2cn[nH]c2)O1 [I-118] | – |
